Laboratory results published in ChEMBL document CHEMBL6092220 (J Med Chem, 2024).
Active and inactive are the calls of the source. The rule behind the calls is not given here.

Experiments:
[1] = target: T1, Protein cereblon/Signal transducer and activator of transcription 3 (Homo sapiens, UniProt P40763+Q96SW2); experiment: PROTAC activity at his-SUMO-tagged STAT3 (127 to 688 residues)/CRBN in human HeLa cells assessed as induction of STAT3 degradation incubated for 24 hrs by TECAN SPARK microplate reader analysis relative to control; assay type: cell-based
[2] = target: T1, Protein cereblon/Signal transducer and activator of transcription 3; experiment: PROTAC activity at his-SUMO-tagged STAT3 (127 to 688 residues)/CRBN in human HeLa cells assessed as induction of STAT3 degradation incubated for 24 hrs by TECAN SPARK microplate reader analysis; assay type: cell-based
[3] = target: T1, Protein cereblon/Signal transducer and activator of transcription 3; experiment: PROTAC activity at his-SUMO-tagged STAT3 (127 to 688 residues)/CRBN in human HeLa cells assessed as induction of STAT3 degradation upto 5 uM incubated for 24 hrs by TECAN SPARK microplate reader analysis; assay type: cell-based
[4] = Antiproliferative activity against human SUPM2 cells assessed as cell growth inhibition incubated for 4 days by celltiter-glo assay; assay type: functional, cell-based; conditions: SUP-M2, 96 h
SU-DHL-1 = experiment: Antiproliferative activity against human SU-DHL-1 cells assessed as cell growth inhibition incubated for 4 days by celltiter-glo assay; assay type: functional, cell-based; conditions: SU-DHL-1, 96 h
[5] = Antiproliferative activity against human MOLM16 cells assessed as cell growth inhibition incubated for 4 days by celltiter-glo assay; assay type: functional, cell-based, MOLM-16; conditions: MOLM16, 96 h
[6] = target: T2, Protein cereblon/Signal transducer and activator of transcription 3 (Mus musculus) (UniProt P42227+Q8C7D2); experiment: In-vivo PROTAC activity at STAT3/CRBN in female CB17 SCID mouse assessed as reduction STAT3 level spleen at 10 mg/kg, iv measured at 24 hrs by Western blot analysis; assay type: functional, organism-based; parameters: scale not given: the % may be the effect or the level left
[7] = target: T2, Protein cereblon/Signal transducer and activator of transcription 3 (Mus musculus); experiment: In-vivo PROTAC activity at STAT3/CRBN in female CB17 SCID mouse assessed as reduction STAT3 level liver at 10 mg/kg, iv measured at 24 hrs by Western blot analysis; assay type: functional, organism-based; parameters: scale not given: the % may be the effect or the level left
[8] = target: T2, Protein cereblon/Signal transducer and activator of transcription 3 (Mus musculus); experiment: In-vivo PROTAC activity at STAT3/CRBN in female CB17 SCID mouse assessed as reduction STAT3 level liver at 10 mg/kg, iv measured at 72 hrs by Western blot analysis; assay type: functional, organism-based; parameters: scale not given: the % may be the effect or the level left
[9] = target: T2, Protein cereblon/Signal transducer and activator of transcription 3 (Mus musculus); experiment: In-vivo PROTAC activity at STAT3/CRBN in female CB17 SCID mouse assessed as reduction STAT3 level liver at 10 mg/kg, iv measured at 48 hrs by Western blot analysis; assay type: functional, organism-based; parameters: scale not given: the % may be the effect or the level left
[10] = target: T2, Protein cereblon/Signal transducer and activator of transcription 3 (Mus musculus); experiment: In-vivo PROTAC activity at STAT3/CRBN in female CB17 SCID mouse assessed as reduction STAT3 level spleen at 10 mg/kg, iv measured at 48 hrs by Western blot analysis; assay type: functional, organism-based; parameters: scale not given: the % may be the effect or the level left
[11] = target: T2, Protein cereblon/Signal transducer and activator of transcription 3 (Mus musculus); experiment: In-vivo PROTAC activity at STAT3/CRBN in female CB17 SCID mouse assessed as reduction STAT3 level spleen at 10 mg/kg, iv measured at 72 hrs by Western blot analysis; assay type: functional, organism-based; parameters: scale not given: the % may be the effect or the level left

| SMILES | Emax [1] [%] | DC50 [2] [nM] | further results |
| --- | --- | --- | --- |
| CN1CC[C@H]2CC[C@@H](C(=O)N[C@@H](CCC(N)=O)C(=O)N[C@H](C(=O)N3CCC(CCC#Cc4cccc5c4CN(C4CCC(=O)NC4=O)C5=O)CC3)c3ccccc3)N2C(=O)[C@@H](NC(=O)c2cc3cc(C(F)(F)P(=O)(O)O)ccc3s2)C1 (some centres not stated) | 86 | 300 | – |
| CN1CC[C@H]2CC[C@@H](C(=O)N[C@@H](CCC(N)=O)C(=O)N[C@H](C(=O)NCCCCC#Cc3cccc4c3CN(C3CCC(=O)NC3=O)C4=O)c3ccccc3)N2C(=O)[C@@H](NC(=O)c2cc3cc(C(F)(F)P(=O)(O)O)ccc3s2)C1 (some centres not stated) | 42 | > 5000 | – |
| CN1CC[C@H]2CC[C@@H](C(=O)N[C@@H](CCC(N)=O)C(=O)N[C@H](C(=O)NCCCCCC#Cc3cccc4c3CN(C3CCC(=O)NC3=O)C4=O)c3ccccc3)N2C(=O)[C@@H](NC(=O)c2cc3cc(C(F)(F)P(=O)(O)O)ccc3s2)C1 (some centres not stated) | 34 | > 5000 | – |
| CN1CC[C@H]2CC[C@@H](C(=O)N[C@@H](CCC(N)=O)C(=O)NC3(C(=O)N4CCC(CCC#Cc5cccc6c5CN(C5CCC(=O)NC5=O)C6=O)CC4)CCCCC3)N2C(=O)[C@@H](NC(=O)c2cc3cc(C(F)(F)P(=O)(O)O)ccc3s2)C1 (some centres not stated) | 0 | > 5000 | Activity [3]: inactive |
| CN1CC[C@H]2CC[C@@H](C(=O)N[C@@H](CCC(N)=O)C(=O)N[C@](C)(C(=O)N3CCC(CCC#Cc4cccc5c4CN(C4CCC(=O)NC4=O)C5=O)CC3)c3ccccc3)N2C(=O)[C@@H](NC(=O)c2cc3cc(C(F)(F)P(=O)(O)O)ccc3s2)C1 (some centres not stated) | 2 | > 5000 | Activity [3]: inactive |
| NC(=O)CC[C@H](NC(=O)[C@@H]1CC[C@@H]2CCN(C(=O)CCCCCC#Cc3cccc4c3CN(C3CCC(=O)NC3=O)C4=O)C[C@H](NC(=O)c3cc4cc(C(=O)P(=O)(O)O)ccc4[nH]3)C(=O)N21)C(=O)NC(c1ccccc1)c1ccccc1 (some centres not stated) | 88 | 400 | IC50 [4]: 470 nM; IC50 (SU-DHL-1): 300 nM; IC50 [5]: 22 nM |
| CN1CC[C@H]2CC[C@@H](C(=O)N[C@@H](CCC(N)=O)C(=O)N[C@H](C(=O)NCCCCCCCCCC#Cc3cccc4c3CN(C3CCC(=O)NC3=O)C4)c3ccccc3)N2C(=O)[C@@H](NC(=O)c2cc3cc(C(F)(F)P(=O)(O)O)ccc3s2)C1 (some centres not stated) | 66 | 300 | – |
| CN1CC[C@H]2CC[C@@H](C(=O)N[C@@H](CCC(N)=O)C(=O)N[C@H](CCC(=O)N3CCC(C#Cc4cccc5c4CN(C4CCC(=O)NC4=O)C5)CC3)c3ccccc3)N2C(=O)[C@@H](NC(=O)c2cc3cc(C(F)(F)P(=O)(O)O)ccc3s2)C1 (some centres not stated) | 31 | > 5000 | – |
| CN1CC[C@H]2CC[C@@H](C(=O)N[C@@H](CCC(N)=O)C(=O)N[C@H](CC(=O)N3CCC(C#Cc4cccc5c4CN(C4CCC(=O)NC4=O)C5)CC3)c3ccccc3)N2C(=O)[C@@H](NC(=O)c2cc3cc(C(F)(F)P(=O)(O)O)ccc3s2)C1 (some centres not stated) | 0 | > 5000 | – |
| CN1CC[C@H]2CC[C@@H](C(=O)N[C@@H](CCC(N)=O)C(=O)N[C@H](C(=O)NCCCC#Cc3cccc4c3CN(C3CCC(=O)NC3=O)C4=O)c3ccccc3)N2C(=O)[C@@H](NC(=O)c2cc3cc(C(F)(F)P(=O)(O)O)ccc3s2)C1 (some centres not stated) | 16 | > 5000 | – |
| CCN1CC[C@H]2CC[C@@H](C(=O)N[C@@H](CCC(N)=O)C(=O)N[C@@H](Cc3ccc(F)c(F)c3)C(=O)N3CCC(CCC#Cc4cccc5c4CN(C4CCC(=O)NC4=O)C5=O)CC3)N2C(=O)[C@@H](NC(=O)c2cc3cc(C(F)(F)P(=O)(O)O)ccc3s2)C1 (some centres not stated) | 92 | 200 | IC50 [4]: 540 nM; Activity [6]: 80%; IC50 (SU-DHL-1): 540 nM; Activity [7]: 80%; IC50 [5]: 31 nM |
| CN1CC[C@H]2CC[C@@H](C(=O)N[C@@H](CCC(N)=O)C(=O)N[C@H](C(=O)N3CCC(CCC#Cc4cccc5c4CN(C4CCC(=O)NC4=O)C5=O)CC3)C3CCCCC3)N2C(=O)[C@@H](NC(=O)c2cc3cc(C(F)(F)P(=O)(O)O)ccc3s2)C1 (some centres not stated) | 91 | 260 | – |
| CC(C)N1CC[C@H]2CC[C@@H](C(=O)N[C@@H](CCC(N)=O)C(=O)N[C@@H](Cc3ccc(F)c(F)c3)C(=O)N3CCC(CCC#Cc4cccc5c4CN(C4CCC(=O)NC4=O)C5=O)CC3)N2C(=O)[C@@H](NC(=O)c2cc3cc(C(F)(F)P(=O)(O)O)ccc3s2)C1 (some centres not stated) | 83 | 500 | Activity [8]: > 90%; IC50 [4]: 1550 nM; Activity [6]: > 90%; Activity [9]: > 90%; Activity [10]: > 90%; IC50 (SU-DHL-1): 1780 nM; Activity [11]: > 90%; Activity [7]: > 90%; IC50 [5]: 93 nM |
| CN1CC[C@H]2CC[C@@H](C(=O)N[C@@H](CCC(N)=O)C(=O)N[C@@H](Cc3ccc(F)c(F)c3)C(=O)N3CCC(CCC#Cc4cccc5c4CN(C4CCC(=O)NC4=O)C5=O)CC3)N2C(=O)[C@@H](NC(=O)c2cc3cc(C(F)(F)P(=O)(O)O)ccc3s2)C1 (some centres not stated) | 90 | 220 | Activity [6]: 50%; Activity [7]: 80% |
| CN1CC[C@H]2CC[C@@H](C(=O)N[C@@H](CCC(N)=O)C(=O)N[C@@H](C(=O)NCCCCCCCCC#Cc3cccc4c3CN(C3CCC(=O)NC3=O)C4=O)c3ccccc3)N2C(=O)[C@@H](NC(=O)c2cc3cc(C(F)(F)P(=O)(O)O)ccc3s2)C1 (some centres not stated) | 60 | 800 | – |
| CN1CC[C@H]2CC[C@@H](C(=O)N[C@@H](CCC(N)=O)C(=O)N[C@H](C(=O)NCCCCCCCC#Cc3cccc4c3CN(C3CCC(=O)NC3=O)C4=O)c3ccccc3)N2C(=O)[C@@H](NC(=O)c2cc3cc(C(F)(F)P(=O)(O)O)ccc3s2)C1 (some centres not stated) | 52 | 1500 | – |
| NC(=O)CC[C@H](NC(=O)[C@@H]1CC[C@@H]2CCNC[C@H](NC(=O)c3cc4cc(C(F)(F)P(=O)(O)O)ccc4s3)C(=O)N21)C(=O)N[C@@H](Cc1ccc(F)c(F)c1)C(=O)N1CCC(CCC#Cc2cccc3c2CN(C2CCC(=O)NC2=O)C3=O)CC1 (some centres not stated) | 73 | 1200 | Activity [6]: Active; Activity [7]: Active |
| CN1CC[C@H]2CC[C@@H](C(=O)N[C@@H](CCC(N)=O)C(=O)N[C@@H](Cc3ccc(F)cc3)C(=O)N3CCC(CCC#Cc4cccc5c4CN(C4CCC(=O)NC4=O)C5=O)CC3)N2C(=O)[C@@H](NC(=O)c2cc3cc(C(F)(F)P(=O)(O)O)ccc3s2)C1 (some centres not stated) | 94 | 90 | Activity [6]: 50%; Activity [7]: 70% |
| CN1CC[C@H]2CC[C@@H](C(=O)N[C@@H](CCC(N)=O)C(=O)N[C@@H](C(=O)NCCCCCCC#Cc3cccc4c3CN(C3CCC(=O)NC3=O)C4=O)c3ccccc3)N2C(=O)[C@@H](NC(=O)c2cc3cc(C(F)(F)P(=O)(O)O)ccc3s2)C1 (some centres not stated) | 36 | > 5000 | – |
| CN1CC[C@H]2CC[C@@H](C(=O)N[C@@H](CCC(N)=O)C(=O)N[C@H](C(=O)N3CCN(CCC#Cc4cccc5c4CN(C4CCC(=O)NC4=O)C5=O)CC3)c3ccccc3)N2C(=O)[C@@H](NC(=O)c2cc3cc(C(F)(F)P(=O)(O)O)ccc3s2)C1 (some centres not stated) | 62 | 2500 | – |
| CN1CC[C@H]2CC[C@@H](C(=O)N[C@@H](CCC(N)=O)C(=O)N[C@@H](C(=O)N3CCC(CCC#Cc4cccc5c4CN(C4CCC(=O)NC4=O)C5=O)CC3)C(C)(C)C)N2C(=O)[C@@H](NC(=O)c2cc3cc(C(F)(F)P(=O)(O)O)ccc3s2)C1 (some centres not stated) | 80 | 1010 | – |
